Assay results reported in US20170038365A1, “SMALL MOLECULE INHIBITORS OF 8-OXOGUANINE DNA GLYCOSYLASE-1 (OGG1)” (OREGON HEALTH & SCIENCE UNIVERSITY, priority 2015, published 2017).

Experiments:
OGG1 [1] = target: T1, OGG1 (Homo sapiens, UniProt O15527); experiment: fluorescence-based OGG1 activity assay (TAMRA/BHQ2 8-oxo-Gua substrate); format: biochemical; settings: read-out: IC50 (OGG1 inhibition)
T1 construct: His tag; made in house; host or cells: bacterial culture (LB media, IPTG induction)
Method: The OGG1 activity assay utilized a 17-mer oligodeoxynucleotide that contained an 8-oxo-Gua positioned 6 deoxynucleotides downstream of a 5′-TAMRA fluorophore and a complementary DNA strand that contained a 3′-Black Hole Quencher 2 (BHQ2) (FIG. 1). […] Therefore, inhibitors of OGG1 activity would be expected to result in a weaker fluorescence signal over time compared to a no inhibitor control.
The fluorescence-based assay outlined in FIG. 2A was performed in black, low volume 384-well plates with a final volume of 10 μL per well. […] Plates were incubated for 30 min at 37° C. and TAMRA fluorescence in each well was measured using the Biotek Synergy 4 platereader (Filters=Ex 528/20, Em 600/40. Mirror=Top 570 nm with polarizer). Background-subtracted fluorescence values were calculated for each well and any compound that had ≧40% decrease in fluorescence compared to the no inhibitor control was identified as a hit. […]
Assays to calculate IC50 values of OGG1, NEIL1, and NTH1 were fundamentally similar to the high-throughput screen except that the step for the addition of drug differed and a lower enzyme concentration was used. […] Plates were incubated at 37° C. for 40 min (OGG1), 5 min (NEIL1), and 10 min (NTH1), followed by the measurement of TAMRA fluorescence. […]

OGG1 [2] = target: T1, OGG1; experiment: OGG1 AP lyase activity on AP site-containing substrate (gel); format: biochemical; settings: 10 μM compound, compared to no inhibitor control
Method: FIG. 5A is a bar graph of OGG1 lyase activity on a substrate containing an AP site. The substrate was incubated without OGG1 (No Enz), with OGG1 (No Inh), or with OGG1+10 μM compound. The top band in each gel corresponds to uncleaved substrate and the bottom band is cleaved product. Mean percent cleavage compared to the no inhibitor control (% Activity) was plotted for three independent experiments. The uncertainties are standard deviations.
(§1) Hydrazides Inhibit the Glycosylase and Lyase Activities of OGG1. To verify the results of the fluorescence-based assay, gel-based assays were performed to detect OGG1-mediated strand cleavage of an 8-oxo-Gua-containing substrate at eight different inhibitor concentrations (FIG. 4). […] There are at least three possibilities that could account for how these molecules inhibit DNA strand cleavage by OGG1. […] This assay used γ-irradiated calf thymus DNA as a substrate and measured the number of free 8-oxo-Gua and FapyGua in solution released by OGG1. […]
(§2) Gel-based assays were performed by combining 4 μL of 2.5×OGG1 (62.5 nM) with 1 μL 10× inhibitor or buffer. […] Samples were analyzed by electrophoresis on a 15% polyacrylamide gel containing 8 M urea and bands were visualized by a FluorChem M imager (Protein Simple). Band intensities were quantified using the Image Studio Lite Software (LI-COR).

OGG1 [3] = target: T1, OGG1; experiment: OGG1 glycosylase activity on γ-irradiated calf thymus DNA by GC-MS/MS; format: biochemical; settings: 0.1 μmol inhibitor
Method: FIG. 5B is a bar graph of OGG1 glycosylase activity measured on irradiated calf thymus DNA. The number of excised 8-oxo-Gua per 10^6 DNA bases was measured by GC-MS/MS. Graph plots equal the mean of three independent experiments. The uncertainties are standard deviations.
FIG. 5C is a bar graph of OGG1 glycosylase activity measured on irradiated calf thymus DNA. The number of excised FapyGua per 10^6 DNA bases was measured by GC-MS/MS. Graph plots equal the mean of three independent experiments. The uncertainties are standard deviations.
as §1
The enzymatic activities of OGG1, NEIL1 and NTH1 were measured using gas chromatography/isotope-dilution tandem mass spectrometry (GC-MS/MS) and calf thymus DNA samples γ-irradiated at 20 Gy as described in Jaruga et al 2008 infra and Reddy et al, 2013 infra. […]

OGG1 [4] = target: T1, OGG1; experiment: gel-based OGG1 cleavage assay on 8-oxo-Gua-containing substrate; format: biochemical; settings: eight inhibitor concentrations 0.008-25 μM
Method: FIG. 4A is an image and plot showing a gel-based OGG1 activity assay of compound O8. 8-oxo-Gua-containing substrate was incubated without OGG1 (No Enz), with OGG1 (No Inh), or with OGG1+8 different concentrations (25, 8, 2.5, 0.8, 0.25, 0.08, 0.025, 0.008 μM) of inhibitors. The top band in the gel corresponds to uncleaved substrate and the bottom band is cleaved product. The Y-axis on each graph equals the percent substrate cleavage compared to the no inhibitor control (% Activity). Data points equal the mean of three independent experiments. The uncertainties are standard deviations.
Hydrazides Inhibit the Glycosylase and Lyase Activities of OGG1. To verify the results of the fluorescence-based assay, gel-based assays were performed to detect OGG1-mediated strand cleavage of an 8-oxo-Gua-containing substrate at eight different inhibitor concentrations (FIG. 4). […] This assay used γ-irradiated calf thymus DNA as a substrate and measured the number of free 8-oxo-Gua and FapyGua in solution released by OGG1. […]
as §2

OGG1 [5] = target: T1, OGG1; experiment: sodium cyanoborohydride trapping assay of OGG1 and substrate; format: biochemical; settings: 10 μM inhibitor, 1 mM NaBH3CN
Method: FIG. 6B is an image and bar graph of Sodium cyanoborohydride trapping of OGG1 and substrate. OGG1 was incubated with 8-oxo-Gua- (top gel), AP site- (bottom gel) or U-containing (last lane in each gel) substrates with or without 10 μM inhibitor or INH. Reactions were performed in the presence of 1 mM NaBH3CN. Top band in each gel corresponds to OGG1 trapped to substrate and the bottom band is untrapped substrate. Bands were quantified in each gel and the percent trapped compared to the no inhibitor control was plotted for each compound. Graph plots equal the mean of three independent experiments. The uncertainties are standard deviations.
FIG. 11 is an image and plot of a dose response for O8 trapping. […] Bands were quantified in each gel and the percent trapped compared to the no inhibitor control (% Trapped) was plotted for each compound. […] Mean T50 values in μM±std. dev. were calculated as described above.
To test whether these inhibitors interfere with catalysis, trapping experiments were conducted by carrying out the OGG1 activity assay in the presence of sodium cyanoborohydride. […] These values are slightly higher, but still very close to the calculated IC50 value for this inhibitor (Table 1).
A total of 4 μL of 2.5×OGG1 (125 nM) was mixed with 1 μL of 10× inhibitor. […] Band intensities were quantified using the Image Studio Lite Software. […]

[6] = target: OGG1 (8-oxoguanine DNA glycosylase-1) (Homo sapiens, UniProt O15527 O15527:1-345); experiment: EMSA; 50 nM OGG1, 25 nM DNA, on ice 5 min; also trapped by NaBH3CN (FIG. 6B); binding abrogated by ATA, unaffected by the five inhibitors; settings: tags: His-tag; expressed in bacteria, Ni-NTA purified; label: 5'-TAMRA; 3'-BHQ2 on complement in fluorescence assay
Chain of OGG1 (8-oxoguanine DNA glycosylase-1) (O15527 whole entry, one chain of several): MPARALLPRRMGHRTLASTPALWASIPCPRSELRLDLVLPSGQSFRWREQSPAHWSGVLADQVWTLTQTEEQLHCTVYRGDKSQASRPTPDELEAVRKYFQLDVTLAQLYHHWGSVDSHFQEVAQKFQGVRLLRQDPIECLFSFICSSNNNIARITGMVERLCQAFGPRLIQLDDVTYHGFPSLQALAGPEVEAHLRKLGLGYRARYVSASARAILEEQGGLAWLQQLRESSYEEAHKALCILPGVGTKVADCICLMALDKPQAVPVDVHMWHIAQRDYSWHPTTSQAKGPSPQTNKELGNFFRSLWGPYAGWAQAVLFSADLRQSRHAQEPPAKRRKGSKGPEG
Method: To test whether these inhibitors affected OGG1 binding to an 8-oxo-Gua or AP site, gel shift assays were performed.
All experiments were performed on ice with pre-cooled reagents. […] 5 μL 2× substrate (50 nM) was added, mixed and kept on ice for 5 min. The reaction was quenched with 10 μL ice-cold 30% glycerol and loaded onto a pre-cooled 8% native gel containing 30% glycerol. The gel was run at 4° C. for 1 h (75 V) and bands were visualized by a FluorChem M imager. Band intensities were quantified using the Image Studio Lite Software.

T1 sequence (O15527 whole entry): as the sequence (O15527 whole entry, one chain of several) above

Row | Molecule | IC50 (OGG1 [1]) | effect on OGG1-induced cleavage of an AP site (AP lyase activity) (OGG1 [2]) | OGG1-mediated excision of 8-oxo-Gua and FapyGua (OGG1 [3]) | other results
1 | NC(=O)c1cc2ccccc2cc1O [3-hydroxy-2-naphthamide] | > 50000 nM |  |  | 
2 | NNC(=O)c1cc2ccccc2cc1O [3-hydroxy-2-naphthohudrazide] | 75 nM |  |  | 
3 | Cc1cc(C(=O)NNCc2ccccc2)no1 [ICD, isocarboxazid] |  | no effect | little to no decrease | 
4 | NNC(=O)c1ccncc1 [INH, isoniazid] |  | no effect | little to no decrease | inhibition of OGG1-mediated strand cleavage of 8-oxo-Gua-containing substrate (OGG1 [4]): no inhibition; effect on trapping of OGG1 (Schiff base formation) on 8-oxo-Gua- and AP site-containing substrates (OGG1 [5]): no effect
5 | 8-oxo-Gua 17-mer duplex (dsDNA, n is 8-oxo-guanine; complement SEQ:2 appears printed 3'-5' [6 (8-oxo-guanine)]) DNA 1: TCACCGTCGTACGACTC DNA 2: GAGTCGTACGACGGTGA |  |  |  | binding result [6]: binds
